Results on 18 compounds are retold here after patent publication US5686486A, “4-hydroxy-benzopyran-2-ones and 4-hydroxy-cycloalkyl[b]pyran-2-ones useful to treat retroviral infections” (priority 1995, dated 1997).

Where a name gives a salt, the structure may show the parent alone. Read-outs that look alike come from different tables or passages of the source.

The target in the assay is HIV-1 protease (Human immunodeficiency virus type 1 group M subtype B, UniProt P04585). In words: biochemical. Conditions: for inhibition at 0.123 µM: read-out: HIV-1 Protease % Inhib, dose 0.123 uM. The gist of the method:
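Biotinylated, FITC-labeled peptide substrate (20 μl of 0.2 μM) incubated with HIV-1 protease (10 μl of 0.1 μM) and compound in 0.1 M sodium acetate pH 5.5, 1.0 M NaCl, 0.05% NP-40, 1 h, room temperature, dark. Streptavidin beads then capture uncleaved substrate; filtered labeled product read by fluorescence, giving percent inhibition.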

[1] abbreviates: dose 0.370 uM, read-out: HIV-1 Protease % Inhib.
Setting [2] is: dose 1.100 uM, read-out: HIV-1 Protease % Inhib.
[3] abbreviates: dose 3.300 uM, read-out: HIV-1 Protease % Inhib.
[4] abbreviates: dose 10.000 uM, read-out: HIV-1 Protease % Inhib.
[5] abbreviates: dose 30.000 uM, read-out: HIV-1 Protease % Inhib.
[6] abbreviates: read-out: HIV-1 Protease % Inhib, dose 0.370 uM.
[7] abbreviates: read-out: HIV-1 Protease % Inhib, dose 1.100 uM.
Where [8] appears, read: read-out: HIV-1 Protease % Inhib, dose 3.300 uM.
[9] abbreviates: read-out: HIV-1 Protease % Inhib, dose 10.000 uM.
Setting [10] is: read-out: HIV-1 Protease % Inhib, dose 30.000 uM.

Turning to `O=c1oc2c(c(O)c1C(c1ccccc1)C1CC1)CCCCC2CC1CCOC1` (centres unmarked) [Example 191, 3-(Cyclopropylphenylmethyl)-6,7,8,9-tetrahydro-4-hydroxy-9-[(tetrahydro-3-furanyl)methyl]-cyclohepta[b]pyran-2(5H)-one], the inhibition at 0.37 µM under setting [1] was determined as 16.9%. Further, the inhibition at 1.1 µM under setting [2] stood at 55%. The inhibition at 3.3 µM under setting [3] came out at 93.3%. Moreover, the inhibition at 10 µM under setting [4] came out at 101%. The inhibition at 30 µM under setting [5] is 100%.
Consider `CC(O)CC1CCCCc2c1oc(=O)c(C(c1ccccc1)C1CC1)c2O` (centres unmarked) [Example 192, 3-(Cyclopropylphenylmethyl)-6,7,8,9-tetrahydro-4-hydroxy-9-(2-hydroxypropyl)-cyclohepta[b]pyran-2(5H)-one], for which the inhibition at 1.1 µM under setting [2] is 24.9%. Moreover, the inhibition at 3.3 µM under setting [3] amounted to 68.8%. Moreover, the inhibition at 10 µM under setting [4] stood at 102%. Besides, the inhibition at 30 µM under setting [5] is 102%.
For `COCCC1CCCCc2c1oc(=O)c(C(c1ccccc1)C1CC1)c2O` (centres unmarked) [Example 193, 3-(Cyclopropylphenylmethyl)-6,7,8,9-tetrahydro-4-hydroxy-9-(methoxyethyl)-cyclohepta[b]pyran-2(5H)-one], the inhibition at 1.1 µM under setting [2] was 35%. In addition, the inhibition at 3.3 µM under setting [3] came out at 70.4%. For the same compound, the inhibition at 10 µM under setting [4] turned out to be 97.7%. For the same compound, under setting [5], the inhibition at 30 µM worked out at 105%.
On to `C[C@H](NC(=O)OC(C)(C)C)C(=O)Nc1cccc(C(c2c(O)c3c(oc2=O)CCCCCC3)C2CC2)c1` (stereo partly drawn) [Example 198, Carbamic acid, [2-[[3-[cyclopropyl(5,6,7,8,9,10-hexahydro-4-hydroxy-2-oxo-2H-cycloocta[b]pyran-3-yl)methyl]phenyl]amino]-1-(S)-methyl-2-oxyethyl]-, 1,1-dimethylethyl ester], for which the inhibition at 0.123 µM worked out at 67.1%. Further, the inhibition at 0.37 µM under setting [6] was 91.9%. Also, under setting [7], the inhibition at 1.1 µM stood at 107%. For the same compound, the inhibition at 3.3 µM under setting [8] is 111%. Besides, the inhibition at 10 µM under setting [9] was found to be 115%. For the same compound, the inhibition at 30 µM under setting [10] is 116%.
As for `CC(C)(C)OC(=O)NCCCC(=O)Nc1cccc(C(c2c(O)c3c(oc2=O)CCCCCC3)C2CC2)c1` (centres unmarked) [Example 201, Carbamic acid, [4-[[3-[cyclopropyl(5,6,7,8,9,10-hexahydro,-hydroxy-2-oxo-2H-cycloocta[b]pyran-3-yl)methyl]phenyl]amino]-4-oxybutyl]-, 1,1-dimethylethyl ester], the inhibition at 0.123 µM worked out at 31.2%. Moreover, the inhibition at 0.37 µM under setting [6] came to 60.1%. The inhibition at 1.1 µM under setting [7] turned out to be 80%. Under setting [8], the inhibition at 3.3 µM stood at 95.4%. Further, the inhibition at 10 µM under setting [9] amounted to 100%. For the same compound, under setting [10], the inhibition at 30 µM was 107%.
With `CC(C)(C)OC(=O)N1CCC[C@H]1C(=O)Nc1cccc(C(c2c(O)c3c(oc2=O)CCCCCC3)C2CC2)c1` (stereo partly drawn) [Example 202, 1-(S)-Pyrrolidinecarboxylic acid, 2-[[[3-[cyclopropyl(5,6,7,8,9,10-hexahydro-4-hydroxy-2-oxo-2H-cycloocta[b]pyran-3-yl)methyl]phenyl]amino]carbonyl]-, 1,1-dimethylethyl ester], the inhibition at 0.123 µM is 20.1%. Moreover, under setting [6], the inhibition at 0.37 µM is 48.1%. For the same compound, the inhibition at 1.1 µM under setting [7] is 73.1%. In addition, the inhibition at 3.3 µM under setting [8] stood at 88.1%. Also, the inhibition at 10 µM under setting [9] amounted to 93.8%. In addition, the inhibition at 30 µM under setting [10] was determined as 94.4%.
Consider `C[C@@H](NC(=O)OC(C)(C)C)C(=O)Nc1cccc(C(c2c(O)c3c(oc2=O)CCCCCC3)C2CC2)c1` (stereo partly drawn) [Example 203, Carbamic acid, [2-[[3-[cyclopropyl(5,6,7,8,9,10-hexahydro-4-hydroxy-2-oxo-2H-cycloocta[b]pyran-3-yl)methyl]phenyl]amino]-1-(R)-methyl-2-oxyethyl]-, 1,1-dimethylethyl ester], for which the inhibition at 0.123 µM was determined as 15.6%. Moreover, the inhibition at 0.37 µM under setting [6] was 55.8%. In addition, under setting [7], the inhibition at 1.1 µM worked out at 81.3%. The inhibition at 3.3 µM under setting [8] amounted to 94.3%. The inhibition at 10 µM under setting [9] amounted to 104%. Further, the inhibition at 30 µM under setting [10] is 94.3%.
Take `CC(C)(C)OC(=O)N[C@H](Cc1c[nH]cn1)C(=O)Nc1cccc(C(c2c(O)c3c(oc2=O)CCCCCC3)C2CC2)c1` (stereo partly drawn) [Example 204, Carbamic acid, [2-[[3-[cyclopropyl(5,6,7,8,9,10-hexahydro-4-hydroxy-2-oxo-2H-cycloocta[b]pyran-3-yl)methyl]phenyl]amino]-1-(R)-(1H-imidazol-4-ylmethyl)-2-oxoethyl]-, 1,1-dimethylethyl ester]: the inhibition at 0.123 µM worked out at 49%. Moreover, the inhibition at 0.37 µM under setting [6] was determined as 86.5%. Further, the inhibition at 1.1 µM under setting [7] turned out to be 107%. Also, the inhibition at 3.3 µM under setting [8] is 114%. The inhibition at 10 µM under setting [9] was determined as 117%. Further, the inhibition at 30 µM under setting [10] came out at 116%.
In the case of `O=C(Nc1cccc(C(c2c(O)c3c(oc2=O)CCCCCC3)C2CC2)c1)c1ccc(Cl)cc1` (centres unmarked) [Example 206, Benzamide, 4-chloro-N-[3-[cyclopropyl(5,6,7,8,9,10-hexahydro-4-hydroxy-2-oxo-2H-cycloocta[b]pyran-3-yl)methyl]phenyl]-], under setting [1], the inhibition at 0.37 µM was determined as 17.9%. Moreover, under setting [2], the inhibition at 1.1 µM came out at 48%. The inhibition at 3.3 µM under setting [3] was 76.4%. Also, the inhibition at 10 µM under setting [4] came to 95.8%. Under setting [5], the inhibition at 30 µM was determined as 93.1%.
`O=C(C=Cc1ccccc1)Nc1cccc(C(c2c(O)c3c(oc2=O)CCCCCC3)C2CC2)c1` (centres unmarked) [Example 208]: under setting [2], the inhibition at 1.1 µM was found to be 22.9%. For the same compound, under setting [3], the inhibition at 3.3 µM amounted to 57.6%. Also, the inhibition at 10 µM under setting [4] was 76.8%. Under setting [5], the inhibition at 30 µM is 84.4%.
As to `O=C(Nc1cccc(C(c2c(O)c3c(oc2=O)CCCCCC3)C2CC2)c1)c1cccc2ccccc12` (centres unmarked) [Example 212, 1-Naphthalenecarboxamide, N-[3-[cyclopropyl(5,6,7,8,9,10-hexahydro4-hydroxy-2-oxo-2H-cyclooct[b]pyran-3-yl)methyl]phenyl]-], under setting [3], the inhibition at 3.3 µM is 32.5%. Further, the inhibition at 10 µM under setting [4] was determined as 59.5%. Besides, under setting [5], the inhibition at 30 µM turned out to be 69.5%.
For the compound `CC(C)(C)OC(=O)NCC(=O)N(Cc1ccccc1)c1cccc(C(c2c(O)c3c(oc2=O)CCCCCC3)C2CC2)c1` (centres unmarked) [Example 216, Carbamic acid, [2-[[3-[cyclopropyl(5,6,7,8,9,10-hexahydro4-hydroxy-2-oxo-2H-cycloocta[b]pyran-3-yl)methyl]phenyl](phenylmethyl)amino]-2-oxyethyl]-, 1,1-dimethylethyl ester], under setting [4], the inhibition at 10 µM was found to be 10.9%. Also, the inhibition at 30 µM under setting [5] was found to be 31.4%.
For the compound `CCC(c1cccc(NC(=O)OCc2ccccc2)c1)c1c(O)c2c(oc1=O)CCCCCC2` (centres unmarked) [Example 217, Carbamic Acid, [3-[1-(5,6,7,8,9,10-hexahydro-4-hydroxy-2-oxo-2H-cycloocta[b]pyran-3-yl)propyl]phenyl]-, phenyl methyl ester], under setting [3], the inhibition at 3.3 µM turned out to be 31.6%. The inhibition at 10 µM under setting [4] stood at 64.2%. Moreover, under setting [5], the inhibition at 30 µM turned out to be 72.9%.
For `CCC(c1cccc(N)c1)c1c(O)c2c(oc1=O)CCCCCC2` (centres unmarked) [Example 218, 2H-Cycloocta[b]pyran-2-one, 3-[1-(3-aminophenyl)propyl]-5,6,7,8,9,10-hexahydro-4-hydroxy-], under setting [2], the inhibition at 1.1 µM was found to be 26.2%. In addition, the inhibition at 3.3 µM under setting [3] is 65.2%. Besides, the inhibition at 10 µM under setting [4] is 88%. In addition, under setting [5], the inhibition at 30 µM amounted to 91.4%.
Turning to `CCC(c1cccc(NC(=O)CCN)c1)c1c(O)c2c(oc1=O)CCCCCC2` (centres unmarked) [Example 220, Propanamide, 3-amino-N-[3-[1-(5,6,7,8,9,10-hexahydro4-hydroxy-2-oxo-2H-cycloocta[b]pyran-3-yl)propyl]phenyl]-, monohydrochloride], under setting [2], the inhibition at 1.1 µM came out at 25.2%. The inhibition at 3.3 µM under setting [3] was determined as 63.6%. Besides, the inhibition at 10 µM under setting [4] stood at 94%. The inhibition at 30 µM under setting [5] is 101%.
Regarding `CCC(c1cccc(NS(=O)(=O)c2ccc(Cl)cc2)c1)c1c(O)c2c(oc1=O)CCCCCC2` (centres unmarked) [Example 221, Benzenesulfonamide, 4-chloro-N-[3-[1-(5,6,7,8,9,10-hexahydro-4-hydroxy-2-oxo-2H-cycloocta[b]pyran-3-yl)propyl]phenyl]-], the inhibition at 0.123 µM was 79.7%. Moreover, the inhibition at 0.37 µM under setting [6] is 101%. Also, the inhibition at 1.1 µM under setting [7] stood at 116%. The inhibition at 3.3 µM under setting [8] was 117%. Moreover, the inhibition at 10 µM under setting [9] was determined as 119%. Moreover, the inhibition at 30 µM under setting [10] turned out to be 124%.
`CCC(c1cccc(NS(=O)(=O)c2ccc(C#N)cc2)c1)c1c(O)c2c(oc1=O)CCCCCC2` (centres unmarked) [Example 222, Benzenesulfonamide, 4-cyano-N-[3-[1-(5,6,7,8,9,10-hexahydro-4-hydroxy-2-oxo-2H-cycloocta[b]pyran-3-yl)propyl]phenyl]-]: the inhibition at 0.123 µM was determined as 80.4%. Further, the inhibition at 0.37 µM under setting [6] is 94.1%. The inhibition at 1.1 µM under setting [7] was determined as 103%. For the same compound, the inhibition at 3.3 µM under setting [8] is 110%. Besides, under setting [9], the inhibition at 10 µM came to 111%. Further, the inhibition at 30 µM under setting [10] worked out at 110%.
With `CCNC(=O)Nc1cccc(C(c2c(O)c3c(oc2=O)CCCCCC3)C2CC2)c1` (centres unmarked) [Example 223, N-[3-[Cyclopropyl(5,6,7,8,9,10-hexahydro-4-hydroxy-2-oxo-2H-cycloocta[b]pyran-3-yl)methyl]phenyl]-N'-ethyl-urea], the inhibition at 0.123 µM was determined as 11.1%. The inhibition at 0.37 µM under setting [6] was 31.3%. Under setting [7], the inhibition at 1.1 µM was found to be 62.3%. Besides, the inhibition at 3.3 µM under setting [8] came to 85.7%. The inhibition at 10 µM under setting [9] was 102%. The inhibition at 30 µM under setting [10] stood at 101%.
